# Where a SMILES comes first, the peptide text is derived from it. Where no end group is shown, it is not given here.
# Target: T1, angiotensin-converting enzyme (ACE) (Oryctolagus cuniculus, UniProt P12822)
# T1 sequence (P12822 34-1310): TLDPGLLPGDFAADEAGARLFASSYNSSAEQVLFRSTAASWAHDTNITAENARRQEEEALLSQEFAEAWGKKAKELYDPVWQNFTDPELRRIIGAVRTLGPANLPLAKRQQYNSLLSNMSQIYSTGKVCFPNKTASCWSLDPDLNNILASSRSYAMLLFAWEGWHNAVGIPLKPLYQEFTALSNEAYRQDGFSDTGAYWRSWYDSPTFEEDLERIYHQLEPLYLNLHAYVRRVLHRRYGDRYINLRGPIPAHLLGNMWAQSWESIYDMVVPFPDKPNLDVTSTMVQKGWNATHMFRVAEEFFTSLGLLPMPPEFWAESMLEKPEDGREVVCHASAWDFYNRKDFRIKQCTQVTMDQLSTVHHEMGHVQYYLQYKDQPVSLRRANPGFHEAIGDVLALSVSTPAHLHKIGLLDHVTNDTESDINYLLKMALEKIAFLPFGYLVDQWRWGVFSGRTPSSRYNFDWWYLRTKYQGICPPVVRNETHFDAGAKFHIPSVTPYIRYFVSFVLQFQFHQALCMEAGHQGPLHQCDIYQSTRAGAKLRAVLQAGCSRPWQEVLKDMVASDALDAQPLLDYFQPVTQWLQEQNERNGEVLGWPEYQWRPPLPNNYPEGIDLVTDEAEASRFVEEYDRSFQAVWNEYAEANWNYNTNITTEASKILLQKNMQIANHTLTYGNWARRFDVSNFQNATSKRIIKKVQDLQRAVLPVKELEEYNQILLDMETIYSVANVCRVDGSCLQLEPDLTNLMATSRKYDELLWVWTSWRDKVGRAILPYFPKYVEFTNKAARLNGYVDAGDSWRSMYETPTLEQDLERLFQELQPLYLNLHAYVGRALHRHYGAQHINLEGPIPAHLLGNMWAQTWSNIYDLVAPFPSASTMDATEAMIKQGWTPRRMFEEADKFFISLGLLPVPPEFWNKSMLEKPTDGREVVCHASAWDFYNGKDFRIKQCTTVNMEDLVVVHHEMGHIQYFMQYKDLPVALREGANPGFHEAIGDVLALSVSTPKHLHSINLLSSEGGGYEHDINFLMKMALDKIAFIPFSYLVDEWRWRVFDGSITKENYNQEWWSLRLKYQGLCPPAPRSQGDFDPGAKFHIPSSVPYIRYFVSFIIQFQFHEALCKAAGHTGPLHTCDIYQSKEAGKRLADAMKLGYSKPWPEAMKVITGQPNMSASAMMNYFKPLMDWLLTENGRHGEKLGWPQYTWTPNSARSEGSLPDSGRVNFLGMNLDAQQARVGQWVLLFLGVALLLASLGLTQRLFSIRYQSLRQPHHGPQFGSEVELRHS
# Experiment: ACE-inhibitory activity, fluorescence assay with Abz-Gly-Phe(NO2)-Pro
# Format: biochemical
# Details: highest peptide concentration analyzed 1000 µM; read-out: ACE Inhibitory Activity (IC50-µM), symbol
# Description: ACE (1 U/mL) was diluted (0.04 U/mL) in 150 mM Tris buffer containing 0.1 μM ZnCl2 (pH 8.3). Forty microliters of sample (or MilliQ water for blank and control) were added to a black multi-well plate (Porvair, Leatherhead, UK). Then, 40 μL of ACE were added, and the reaction started after the addition of 160 μL of the substrate. The plate was incubated at 37 °C for 30 min, and the fluorescence was measured in a FLUOstar OPTIMA plate reader (BMG Labtechnologies GmbH, Offenburg, Germany) with 320 nm excitation and 420 nm emission filters.
row,Compound,IC50 [µM]
1,YPVEPF [YPVEPF],> 1000
2,YPFVE [YPFVE],> 1000
3,CC(C)C[C@H](NC(=O)[C@H](Cc1ccc(O)cc1)NC(=O)[C@@H](N)CCCNC(=N)N)C(=O)O [RYL] (H-Arg-Tyr-Leu-OH; N-terminus and C-terminus assumed),> 1000
4,N[C@@H](Cc1ccc(O)cc1)C(=O)N1CCC[C@H]1C(=O)N[C@@H](Cc1c[nH]c2ccccc12)C(=O)O [YPW] (H-Tyr-Pro-Trp-OH; N-terminus and C-terminus assumed),> 1000
5,CC(C)C[C@H](NC(=O)[C@H](Cc1ccc(O)cc1)NC(=O)[C@@H](N)CCCNC(=N)N)C(=O)NCC(=O)O [RYLG] (H-RYLG-OH; N-terminus and C-terminus assumed),> 1000
6,RYLGYLE [RYLGYLE],> 1000
7,CC(C)C[C@H](NC(=O)[C@@H](N)Cc1ccc(O)cc1)C(=O)NCC(=O)O [YLG] (H-Tyr-Leu-Gly-OH; N-terminus and C-terminus assumed),> 1000

# Same assay, conditions: mean ± SD; read-out: ACE Inhibitory Activity (IC50-µM)
row,Compound,IC50 [µM]
1,CC(C)C[C@H](NC(=O)[C@@H](N)Cc1ccc(O)cc1)C(=O)NCC(=O)N[C@@H](Cc1ccc(O)cc1)C(=O)O [YLGY] (H-YLGY-OH; N-terminus and C-terminus assumed),9.87 ± 0.31
2,CC(C)C[C@H](NC(=O)[C@H](Cc1ccccc1)NC(=O)CNC(=O)[C@@H](N)Cc1ccc(O)cc1)C(=O)O [YGFL],292.5 ± 0.83
3,YPFPGPI [YPFPGPI],686 ± 103

# System: Caco-2 cells
# Experiment: Cell viability (MTT), direct effects, Caco-2
# Format: cell-based, human
# Details: Caco-2, 1–100 µM, 24 h
# Description: (§1) Cell viability was determined using the MTT assay. […] Samples were analyzed in triplicate.
row,Compound,"Cell viability, direct effect"
1,RYLGYLE [RYLGYLE],did not evoke changes in cell viability

# System: not listed separately
# Experiment: Oxygen radical absorbance capacity (ORAC)-FL assay
# Details: mean ± SD
# Description: An oxygen radical absorbance capacity (ORAC)-FL assay was used based on the protocol previously optimized. The reaction was performed at 37 °C in 75 mM phosphate buffer (pH 7.4). The final assay mixture volume was 200 µL, containing 70 nM FL, 12 mM AAPH, and antioxidant [(Trolox, 1–8 µM) or sample (at different concentrations)]. Fluorescence was measured during 137 min in a FLUOstar OPTIMA plate reader (BMG Labtech) with 485 nm excitation and 520 nm emission filters. The equipment was controlled by the FLUOstar Control ver. 1.32 R2 software for fluorescence measurement. Samples were analyzed in triplicate. The final ORAC-FL value was expressed as μmol Trolox equivalents (TE) per μmol peptide.
row,Compound,Antioxidant Activity ORAC [µmol TE/µmol peptide]
1,CC(C)C[C@H](NC(=O)[C@@H](N)Cc1ccc(O)cc1)C(=O)NCC(=O)N[C@@H](Cc1ccc(O)cc1)C(=O)O [YLGY] (H-YLGY-OH; N-terminus and C-terminus assumed),2.96 ± 0.20
2,CC(C)C[C@H](NC(=O)[C@H](Cc1ccccc1)NC(=O)CNC(=O)[C@@H](N)Cc1ccc(O)cc1)C(=O)O [YGFL],1.42 ± 0.04
3,CC(C)C[C@H](NC(=O)[C@H](Cc1ccc(O)cc1)NC(=O)[C@@H](N)CCCNC(=N)N)C(=O)O [RYL] (H-Arg-Tyr-Leu-OH; N-terminus and C-terminus assumed),1.72 ± 0.14
4,CC(C)C[C@H](NC(=O)[C@H](Cc1ccc(O)cc1)NC(=O)[C@@H](N)CCCNC(=N)N)C(=O)NCC(=O)O [RYLG] (H-RYLG-OH; N-terminus and C-terminus assumed),1.70 ± 0.11
5,CC(C)C[C@H](NC(=O)[C@@H](N)Cc1ccc(O)cc1)C(=O)NCC(=O)O [YLG] (H-Tyr-Leu-Gly-OH; N-terminus and C-terminus assumed),0.93 ± 0.08

# Target: T1, angiotensin-converting enzyme (ACE)
# Experiment: not given
# Details: BIOPEP-UWM; read-out: ACE inhibitory IC50; cited from earlier work
row,Compound,IC50 [µM]
1,CC(C)C[C@H](NC(=O)[C@H](Cc1ccc(O)cc1)NC(=O)[C@@H](N)CCCNC(=N)N)C(=O)O [RYL] (H-Arg-Tyr-Leu-OH; N-terminus and C-terminus assumed),3.31

# Same assay, conditions: MBPDB; read-out: ACE inhibitory IC50; cited from earlier work
row,Compound,IC50 [µM]
1,YPFPGPI [YPFPGPI],500

# Same assay, conditions: database value; read-out: ACE inhibitory IC50; cited from earlier work
row,Compound,IC50 [µM]
1,CC(C)C[C@H](NC(=O)[C@@H](N)Cc1ccc(O)cc1)C(=O)NCC(=O)N[C@@H](Cc1ccc(O)cc1)C(=O)O [YLGY] (H-YLGY-OH; N-terminus and C-terminus assumed),41.9
2,CC(C)C[C@H](NC(=O)[C@H](Cc1ccc(O)cc1)NC(=O)[C@@H](N)CCCNC(=N)N)C(=O)O [RYL] (H-Arg-Tyr-Leu-OH; N-terminus and C-terminus assumed),107
3,CC(C)C[C@H](NC(=O)[C@H](Cc1ccc(O)cc1)NC(=O)[C@@H](N)CCCNC(=N)N)C(=O)NCC(=O)O [RYLG] (H-RYLG-OH; N-terminus and C-terminus assumed),225

# System: not listed separately
# Experiment: ABTS assay (TEAC)
# Details: mean ± SD
# Description: Antioxidant activity was measured using a previously optimized method with some modifications. A mixture of 7 mM ABTS stock solution and 2.45 mM potassium persulfate was kept in the dark at room temperature for 12-16 h to form the ABTS radical cation (ABTS^•+). The ABTS^•+ solution was diluted in 5 mM of phosphate buffer solution (PBS) (pH 7.4) to an absorbance of 0.70 ± 0.02 at 734 nm at 30 °C. Two mL of diluted ABTS^•+ solution were mixed with 20 μL of sample or Trolox (0–0.015 μmol), and the absorbance was recorded at 734 nm after 10 min incubation at 30 °C. The Trolox equivalent antioxidant capacity (TEAC) value was expressed as μmol TE per μmol peptide. Each sample was analyzed in triplicate.
row,Compound,Antioxidant Activity TEAC [µmol TE/µmol peptide]
1,CC(C)C[C@H](NC(=O)[C@@H](N)Cc1ccc(O)cc1)C(=O)NCC(=O)N[C@@H](Cc1ccc(O)cc1)C(=O)O [YLGY] (H-YLGY-OH; N-terminus and C-terminus assumed),2.14 ± 0.11
2,CC(C)C[C@H](NC(=O)[C@H](Cc1ccccc1)NC(=O)CNC(=O)[C@@H](N)Cc1ccc(O)cc1)C(=O)O [YGFL],2.12 ± 0.03
3,CC(C)C[C@H](NC(=O)[C@H](Cc1ccc(O)cc1)NC(=O)[C@@H](N)CCCNC(=N)N)C(=O)O [RYL] (H-Arg-Tyr-Leu-OH; N-terminus and C-terminus assumed),1.90 ± 0.03
4,CC(C)C[C@H](NC(=O)[C@H](Cc1ccc(O)cc1)NC(=O)[C@@H](N)CCCNC(=N)N)C(=O)NCC(=O)O [RYLG] (H-RYLG-OH; N-terminus and C-terminus assumed),2.91 ± 0.21
5,CC(C)C[C@H](NC(=O)[C@@H](N)Cc1ccc(O)cc1)C(=O)NCC(=O)O [YLG] (H-Tyr-Leu-Gly-OH; N-terminus and C-terminus assumed),1.40 ± 0.04

# System: not given
# Experiment: not given
# Details: MBPDB; cited from earlier work
row,Compound,ORAC
1,CC(C)C[C@H](NC(=O)[C@@H](N)Cc1ccc(O)cc1)C(=O)NCC(=O)N[C@@H](Cc1ccc(O)cc1)C(=O)O [YLGY] (H-YLGY-OH; N-terminus and C-terminus assumed),ORAC = 1.46 µmol TE/µmol peptide **
2,CC(C)C[C@H](NC(=O)[C@H](Cc1ccc(O)cc1)NC(=O)[C@@H](N)CCCNC(=N)N)C(=O)O [RYL] (H-Arg-Tyr-Leu-OH; N-terminus and C-terminus assumed),ORAC = 1.75 µmol TE/µmol peptide **
3,CC(C)C[C@H](NC(=O)[C@H](Cc1ccc(O)cc1)NC(=O)[C@@H](N)CCCNC(=N)N)C(=O)NCC(=O)O [RYLG] (H-RYLG-OH; N-terminus and C-terminus assumed),ORAC = 1.67 µmol TE/µmol peptide **
4,CC(C)C[C@H](NC(=O)[C@@H](N)Cc1ccc(O)cc1)C(=O)NCC(=O)O [YLG] (H-Tyr-Leu-Gly-OH; N-terminus and C-terminus assumed),ORAC = 1.38 µmol TE/µmol peptide **

# System: RAW264.7 cells
# Experiment: Cell viability (MTT), direct effects, RAW264.7
# Format: cell-based, mouse
# Details: RAW264.7, 1–100 µM, 24 h
# Description: as §1
row,Compound,"Cell viability, direct effect"
1,RYLGYLE [RYLGYLE],did not evoke changes in cell viability

# Source: article PMC7466261, “In Silico and In Vitro Analysis of Multifunctionality of Animal Food-Derived Peptides” (Foods, 2020)
